Reference: paper PMC6749073 (Frontiers in Pharmacology, 2019)
pIC50: −log10 of the molar value.

How the values were obtained:
[1] = tested on: p53, Fas, and Bax expressions in A549 and H292 cells; assay: Western blot of p53, Fas and Bax; assay type: cell-based, human; conditions: 10 μM SP600125 pretreatment 0.5 h, 25 μM diplatin 48 h
Experimental: (§1) Cells were treated with diplatin, DDP, and CBP before being lysed. After centrifugation at 12,000 rpm for 10 min, an equal amount of protein from each group was subjected to electrophoresis on 10% SDS-PAGE gels. The proteins in the gel were then electroblotted onto polyvinylidene fluoride (PVDF) membranes (Millipore, Massachusetts, USA). After incubation in the blocking buffer (1× TBS, 0.1% Tween-20, and 5% w/v dry nonfat milk) for 1 h at room temperature, the membranes were incubated with the primary antibody at 4°C overnight. Next, membranes were rinsed with TBST, and then secondary antibodies were applied (LI-COR, USA) at room temperature for 1 h. Immunoreactive bands were visualized by a two-color infrared imaging system (Odyssey, LI-COR, USA).

[2] = tested on: A549, NCI-H292, NCI-H460, and LTEP-A-2 xenograft models; assay: ED50 (50% reduction of xenograft tumor volume) in nude mice; assay type: in vivo; conditions: dose reducing xenograft tumor volume by 50%; average over A549, NCI-H292, NCI-H460, and LTEP-A-2 xenograft models
Experimental: (§2) After injection, the animals’ condition was monitored every day for over 1 week by an observer who was blinded to the dose and drug allocation.
(§3) Estimates for ED50 and LD50 were calculated through nonlinear regression, data were fitted to a sigmoidal dose-response relationship in Prism (version 4.0a; GraphPad Software, Inc., San Diego, CA). The data were fitted to the equation:
(§4) Y=Ymin+Ymax−Ymin/1+10^(LogED50−X)∗HillSlope
(§5) where X is the logarithm of concentration, and Y is the response.

A549 = assay: MTT cell viability assay, A549; assay type: cell-based, human; conditions: 48 h
Experimental: (§6) Cells were seeded at a density of 1 × 10^4 cells per well in 96-well plates. The following day, these cells were washed with PBS and exposed to different concentrations of testing compounds in culture medium for 48 h. MTT solution (10 μl at 5 mg/ml) was added to each well. After 4 h of incubation at 37°C, the medium was removed, and the insoluble precipitate was dissolved in 100 μl DMSO (Sigma, St. Louis, MO, USA). The absorbance of the dissolved solution at 490 nm was measured using a microplate reader (TECAN A-5082; Megllan, Austria). Cell viability percentages were calculated by dividing the mean optical density (OD) of compound-containing wells by that of the control wells. Each experiment was replicated three times. The IC50 of testing drugs was calculated with Statistical Product and Service Solutions software (SPSS, version 16.0).

H292 = assay: MTT cell viability assay, H292; assay type: cell-based, human; conditions: 48 h
Experimental: as §6

HCC827 = assay: MTT cell viability assay, HCC827; assay type: cell-based, human; conditions: 48 h
Experimental: as §6

H1299 = assay: MTT cell viability assay, H1299; assay type: cell-based, human; conditions: 48 h
Experimental: as §6

LTEP-A-2 = assay: MTT cell viability assay, LTEP-A-2; assay type: cell-based, human; conditions: 48 h
Experimental: as §6

H1650 = assay: MTT cell viability assay, H1650; assay type: cell-based, human; conditions: 48 h
Experimental: as §6

Calu-3 = assay: MTT cell viability assay, Calu-3; assay type: cell-based, human; conditions: 48 h
Experimental: as §6

A549/DDP = assay: MTT cell viability assay, A549/DDP; assay type: cell-based, human; conditions: A549/DDP (DDP-resistant), 48 h
Experimental: as §6

[3] = tested on: BEAS-2B normal human lung epithelial cell line; assay: MTT cell viability assay, BEAS-2B; assay type: cell-based; conditions: BEAS-2B normal lung epithelial cells; MTT; 48 h
Experimental: as §6

[4] = tested on: bone marrow karyocyte count; assay: Bone marrow karyocyte count; assay type: in vivo, mice
A549 cells = assay: Cell cycle by PI flow cytometry, A549; assay type: cell-based, human; conditions: diplatin 50 μM, DDP 5 μM, CBP 100 μM
Experimental: (§7) Then, the cells were trypsinized, washed with PBS, and fixed in 1.5 ml 95% ethanol and left at 4°C overnight. They were then incubated with RNase and stained with propidium iodide (PI) (Multi Sciences Biotech Co., Ltd). PI absorbance was determined using a Cytomics FC500 Flow Cytometer (Beckman Coulter, USA).

H292 cells = assay: Cell cycle by PI flow cytometry, H292; assay type: cell-based, human; conditions: diplatin 50 μM, DDP 5 μM, CBP 100 μM
Experimental: as §7

LTEP-A-2 cells = assay: Cell cycle by PI flow cytometry, LTEP-A-2; assay type: cell-based, human; conditions: diplatin 50 µM, DDP 5 µM, CBP 100 µM
Experimental: as §7

H460 cells = assay: Cell cycle by PI flow cytometry, H460; assay type: cell-based, human; conditions: diplatin 50 µM, DDP 5 µM, CBP 100 µM
Experimental: as §7

[5] = tested on: JNK, Erk1/2 and p38 phosphorylation in A549 and H292 cells; assay: Western blot of MAPK phosphorylation (JNK, Erk1/2, p38); assay type: cell-based, human; conditions: for Erk1/2 and p38 phosphorylation: diplatin 10, 25, 50 μM, DDP 5 μM, CBP 100 μM
Experimental: as §1

[6] = set-up: method as in Moraleja et al., 2018; conditions: rats; ref Moraleja et al., 2018; cited from earlier work
normal ICR mice = assay: LD50 in normal ICR mice; assay type: in vivo; conditions: tail vein injection
Experimental: as §2, §3, §4, §5

H460 = assay: MTT cell viability assay, H460; assay type: cell-based, human; conditions: 48 h
Experimental: as §6

lung tumor cell lines = assay: MTT cell viability assay, panel of lung tumor cell lines; assay type: cell-based, human; conditions: 48 h, read-out: IC50 range over the lung tumor cell lines
Experimental: as §6

[7] = Body weight and tolerability of A549 and H292 xenograft mice; assay type: in vivo; conditions: diplatin 120 mg/kg; CBP 60 mg/kg; every 3 days i.v.
Experimental: Cells in logarithmic growth were washed with PBS and suspended in serum-free medium. Portions of the suspension (5 × 10^6 cells in 0.1 ml/mouse) were mixed at a 3:1 ratio with Matrigel basement membrane matrix and injected subcutaneously into the mice. Following 2 weeks of growth, tumor tissues were cut into multiple 2 × 2 × 2 mm^3 pieces and implanted using a range trocar subcutaneously (s.c. injection) into the left forepaw armpit of each mouse ([Jiang et al., 2017]). Treatment with pharmacology was started when the tumors reached an average volume of 100–200 mm^3. The mice were randomly divided into six groups (n = 14/group).
Body weight and tumor size were assessed every 3 days. Tumor size was measured using a caliper, the volumes were calculated according to the following standard formula: V = (L × W^2)/2 (V = tumor volume, L = largest diameter of tumor, W = smallest diameter of tumor). On day 25, all mice were sacrificed by cervical dislocation, and the tumors were removed and weighed.

[8] = tested on: peripheral blood cell count; assay: Peripheral blood cell count of treated xenograft mice; assay type: in vivo; conditions: diplatin 120 mg/kg; DDP 6 mg/kg; CBP 60 mg/kg
[9] = Splenic index (spleen weight-to-body weight ratio); assay type: in vivo, mice; conditions: diplatin 30, 60, 120 mg/kg; DDP 6 mg/kg; CBP 60 mg/kg
A549 tumors = assay: TUNEL assay of A549 xenograft tumor sections; assay type: in vivo, mice; conditions: diplatin 120 mg/kg, DDP 6 mg/kg, CBP 60 mg/kg
Experimental: (§8) Tumor tissues were fixed in 10% formalin for 4 h and then embedded in paraffin. Five-micrometer-thick sections were sliced and stained for apoptotic cells with TUNEL assay kit in accordance with manufacturer instructions (KGI Biotechnology Company, Nanjing, China). A positive result was marked by brown staining in the cell nucleus. Cell images were acquired through a microscope (Olympus BX 51, Japan). The apoptotic index (AI) was determined as a percentage of apoptotic cells from at least 1,000 cells in each mouse.

H292 tumors = assay: TUNEL assay of H292 xenograft tumor sections; assay type: in vivo, mice; conditions: diplatin 120 mg/kg, DDP 6 mg/kg, CBP 60 mg/kg
Experimental: as §8

Compound | Mice ED50 [2] | pIC50 (A549) | pIC50 (H292) | pIC50 (HCC827) | pIC50 (H1299) | pIC50 (LTEP-A-2) | pIC50 (H1650) | pIC50 (Calu-3) | pIC50 (A549/DDP) | pIC50 [3] | effect on cell cycle distribution (A549 cells) | effect on cell cycle distribution (H292 cells) | effect on cell cycle distribution (LTEP-A-2 cells) | effect on cell cycle distribution (H460 cells) | Erk1/2 and p38 phosphorylation [5] | other results
Oc1c2ccccc2c2c3c(cccc13)N=N2 [SP600125] |  |  |  |  |  |  |  |  |  |  |  |  |  |  |  | effect on diplatin-induced p53, Fas, and Bax expression [1]: suppressed
N.N.[Cl][Pt][Cl] [DDP, cisplatin] | 6.0 mg/kg | 4.33 | 5.22 | 4.83 | 4.73 | 5.21 | 4.94 | 4.47 | 3.82 | 4.71 | induced cell cycle arrest in S phase | induced cell cycle arrest in S phase | induced cell cycle arrest in S phase | induced cell cycle arrest in S phase | failed to induce Erk1/2 and p38 phosphorylation | bone marrow karyocyte count compared with the 120 mg/kg diplatin-treated group ([4]; mouse, in vivo): decreased bone marrow karyocyte count more; JNK phosphorylation levels ([5]; diplatin 10–50 μM, DDP 10 μM, 0.5 h): elevated; Pt accumulation in the kidney compared with the CBP group [6]: approximately five-fold higher
N.N.O=C([O-])C1(C(=O)[O-])CCC1.[Pt+2] [CBP, carboplatin] | 59.5 mg/kg | 3.66 | 3.59 | 3.48 | 3.56 | 4.24 | 3.68 | 3.10 | 3.52 | 3.34 | induced cell cycle arrest in S phase | induced cell cycle arrest in S phase | induced cell cycle arrest in S phase | induced cell cycle arrest in S phase | failed to induce Erk1/2 and p38 phosphorylation | Mice LD50 (normal ICR mice): 150 mg/kg; pIC50 (H460): 3.64; pIC50 (lung tumor cell lines): 3.10 to 4.24; reduction of body weight by day 25 [7]: 18.71%; decrease of peripheral blood cell count [8]: 67.9%; splenic index relative to control [9]: no difference relative to control; bone marrow karyocyte count compared with the 120 mg/kg diplatin-treated group ([4]; DDP 6 mg/kg, CBP 60 mg/kg): decreased bone marrow karyocyte count more; apoptosis (apoptotic index, TUNEL) (A549 tumors): 18.5%; apoptosis (apoptotic index, TUNEL) (H292 tumors): 24.9%
